# Measurements as given in the Kinase Knowledgebase extract (Sharma et al. 2016).
# Biological target: CDK2 (human) (UniProt P24941)
# Assay: Enzyme Assay
row,SMILES,Ki
1,Cc1cc(Nc2cc(CN(C)C)nc(Sc3ccc4c(=O)[nH][nH]c4c3)n2)n[nH]1,< 1000 nM
2,Cc1cc(Nc2cc(-c3ccccc3)nc(Sc3ccc4c(=O)[nH][nH]c4c3)n2)n[nH]1,< 1000 nM
3,O=c1[nH][nH]c2cc(Nc3nc(Nc4cc(C5CC5)[nH]n4)c4ccc(Cl)cc4n3)ccc12,< 1000 nM
4,O=c1[nH][nH]c2cc(Cc3cc4ccccc4c(Nc4cc(C5CC5)[nH]n4)n3)ccc12,< 1000 nM
5,CC(C)c1cc(Nc2nc(Nc3ccc4c(=O)[nH][nH]c4c3)nc3ccc(-c4ccccc4)cc23)n[nH]1,< 1000 nM
6,O=C(CCNc1ccccn1)Cc1ccc2c(=O)[nH][nH]c2c1,< 1000 nM
7,CN1CCN(c2cc(Nc3cc(C4CC4)[nH]n3)nc(Oc3ccc4c(=O)[nH][nH]c4c3)n2)CC1,< 1000 nM
8,O=c1[nH][nH]c2cc(NC(CCNc3ccccn3)Cc3ccccc3)ccc12 (stereo not given),< 1000 nM
9,Cc1cc(Nc2ccnc(Nc3ccc4c(=O)[nH][nH]c4c3)c2)n[nH]1,< 1000 nM
10,Cc1cc(Nc2nc(Sc3ccc4c(=O)[nH][nH]c4c3)cc3ccccc23)n[nH]1,< 1000 nM
11,O=c1[nH][nH]c2cc(Nc3nc(Nc4cc(-c5ccco5)[nH]n4)cc(-c4ccccc4)n3)ccc12,< 1000 nM
12,Cc1cc(Nc2cc(-c3c(C)cccc3C)nc(Sc3ccc4c(=O)[nH][nH]c4c3)n2)n[nH]1,< 1000 nM
13,O=c1[nH][nH]c2cc(SCCONc3cc(C4CC4)[nH]n3)ccc12,< 1000 nM
14,O=c1[nH][nH]c2cc(C(F)(F)F)c(-c3cc(-c4ccncc4)nc(Nc4cc(C5CC5)[nH]n4)n3)cc12,< 1000 nM
15,O=c1[nH][nH]c2cc(Nc3nc(Nc4n[nH]c5cccc(F)c45)c4ccccc4n3)ccc12,< 1000 nM
16,O=c1[nH][nH]c2cc(CCCONc3cc(C4CC4)[nH]n3)ccc12,< 1000 nM
17,CCCCOC(=O)c1cc(Nc2cc(C)[nH]n2)nc(Sc2ccc3c(=O)[nH][nH]c3c2)n1,< 1000 nM
18,C#Cc1c(-c2nc(Nc3n[nH]c(C)n3)c3ccccc3n2)ccc2[nH][nH]c(=O)c12,< 1000 nM
19,Cc1cnc(Oc2ccc3c(=O)[nH][nH]c3c2)nc1Nc1cc(C2CC2)[nH]n1,< 1000 nM
20,COCc1cc(Nc2cc(C)[nH]n2)nc(COc2ccc3[nH][nH]c(=O)c3c2)n1,< 1000 nM
21,Cc1cnc(NCCC(Cc2ccccc2)Cc2ccc3c(=O)[nH][nH]c3c2)s1 (stereo not given),< 1000 nM
22,O=c1[nH][nH]c2ccc(-c3nc(Nc4cc(C5CCCC5)[nH]n4)c4ccccc4n3)cc12,< 1000 nM
23,Cc1cnc(NOCCOc2ccc3c(=O)[nH][nH]c3c2)s1,< 1000 nM
24,O=c1[nH][nH]c2cc(Cl)c(-c3cc(Nc4n[nH]c5ccccc45)c4c(n3)CCCC4)cc12,< 1000 nM
25,O=C1CCCN(c2cc(-c3cc4c(=O)[nH][nH]c4cc3Cl)nc(Nc3n[nH]c4ccc(F)cc34)n2)C1,< 1000 nM

# Further lines, results first:
row,Ki,SMILES
1,< 1000 nM,O=C(CCNc1ccc2c(=O)[nH][nH]c2c1)Nc1ccccn1
2,< 1000 nM,Cc1cnc(NCCC(=O)Nc2ccc3c(=O)[nH][nH]c3c2)s1
3,< 1000 nM,O=c1[nH][nH]c2ccc(C3CCCC(Nc4ccccn4)C3)cc12 (stereo not given)
4,< 1000 nM,O=c1[nH][nH]c2cc(NC3COCC(Nc4cc(C5CC5)[nH]n4)C3)ccc12 (stereo not given)
5,< 1000 nM,O=c1[nH][nH]c2cc(OCCCNc3cc(C4CC4)[nH]n3)ccc12
6,< 1000 nM,Cn1cnc(NC2CCC(COCc3ccc4c(=O)[nH][nH]c4c3)C2)c1 (stereo not given)
7,< 1000 nM,Cn1cnc(NC2CCCC(Sc3ccc4c(=O)[nH][nH]c4c3)C2)c1 (stereo not given)
8,< 1000 nM,O=c1[nH][nH]c2cc(CCC3CCCC3Nc3nccnn3)ccc12 (stereo not given)
9,< 1000 nM,O=c1[nH][nH]c2cc(CCC3CCCC3Nc3ccccn3)ccc12 (stereo not given)
10,< 1000 nM,O=c1[nH][nH]c2cc(NCC3CCCC3Nc3nccnn3)ccc12 (stereo not given)
11,< 1000 nM,O=c1[nH][nH]c2ccc(C3CCCC(Nc4nccnn4)C3)cc12 (stereo not given)
12,< 1000 nM,O=c1[nH][nH]c2cc(Nc3cccc(Nc4nccnn4)c3)ccc12
13,< 1000 nM,O=C(CC(=O)Oc1ccc2c(=O)[nH][nH]c2c1)Nc1cc(C2CC2)[nH]n1
14,< 1000 nM,O=c1[nH][nH]c2cc(Nc3nc(Nc4cc(C5CCC5)[nH]n4)c4ccccc4n3)ccc12
15,< 1000 nM,O=c1[nH][nH]c2cc(SCC3CCCC3Nc3ccccn3)ccc12 (stereo not given)
